# Assays:
# MCF-7 cells [1] = test: ERE-TK-Luc transfection assay in MCF-7 cells; settings: 1, 5 or 10 μM + 10 nM E2
# U2OS-ERα cells [2] = test: KRT19 mRNA real-time PCR in U2OS-ERα cells; format: cell-based, human
# Procedure: (§1) (FIG. 1a) Chemical structure of 2′, 3′, 4′-THC. (FIG. 1b) U2OS cells cotransfected with ERE tk-luciferase and ERα (left panel) or ERβ (right panel). After transfection the cells were treated for 24 hours with 10 nM estradiol and 5 μM 2′, 3′, 4′-THC alone or in combination. Cells were lysed and luciferase activity was measured. RLU is relative light units. Error bars are the Mean±SEM. **P≤0.01. […] The total cellular RNA was extracted and real-time PCR for KRT19 mRNA was performed as described in Materials and Methods. […] Error bars are ±SEM. *P≤0.05, **** P≤0.0001.
# FIGS. 3a-3d. […] Error bars are ±SEM.
# hPR-B = molecular target: T1, hPR-B (Homo sapiens, UniProt P06401); test: TAT3-luciferase reporter, U2OS cells cotransfected with hPR-B; format: cell-based; settings: 5 μM + 10 nM progesterone, 24 hours
# T1 construct: expressed in transfected cells; host or cells: U2OS
# T1 sequence (P06401 1-933): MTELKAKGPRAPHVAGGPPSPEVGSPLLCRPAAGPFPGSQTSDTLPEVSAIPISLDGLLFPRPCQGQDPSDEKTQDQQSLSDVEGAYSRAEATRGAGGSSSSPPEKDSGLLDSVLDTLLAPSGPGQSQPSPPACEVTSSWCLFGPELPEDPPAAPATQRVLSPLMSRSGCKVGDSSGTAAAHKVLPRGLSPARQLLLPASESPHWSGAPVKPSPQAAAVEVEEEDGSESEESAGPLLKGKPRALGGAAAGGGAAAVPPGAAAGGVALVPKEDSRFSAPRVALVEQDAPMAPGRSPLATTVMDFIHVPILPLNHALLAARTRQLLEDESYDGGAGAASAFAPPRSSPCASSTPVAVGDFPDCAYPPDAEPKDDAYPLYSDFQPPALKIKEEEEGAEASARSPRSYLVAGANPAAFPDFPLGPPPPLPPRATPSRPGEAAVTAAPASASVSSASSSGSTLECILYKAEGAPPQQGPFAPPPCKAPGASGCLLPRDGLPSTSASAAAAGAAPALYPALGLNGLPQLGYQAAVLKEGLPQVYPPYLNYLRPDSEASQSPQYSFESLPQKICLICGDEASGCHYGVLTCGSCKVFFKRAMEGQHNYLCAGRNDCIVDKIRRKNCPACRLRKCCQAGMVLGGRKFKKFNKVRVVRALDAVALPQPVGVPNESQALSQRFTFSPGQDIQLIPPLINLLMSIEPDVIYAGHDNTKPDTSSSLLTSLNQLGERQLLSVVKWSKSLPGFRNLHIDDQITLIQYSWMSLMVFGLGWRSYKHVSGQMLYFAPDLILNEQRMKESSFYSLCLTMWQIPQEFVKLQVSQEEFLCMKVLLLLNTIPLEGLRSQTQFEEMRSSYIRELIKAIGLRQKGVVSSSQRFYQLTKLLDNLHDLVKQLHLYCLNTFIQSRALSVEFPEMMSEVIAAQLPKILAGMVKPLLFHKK
# U2OS-ERα cells [3] = test: NKG2E mRNA real-time PCR in U2OS-ERα cells; format: cell-based, human
# Procedure: as §1
# (FIGS. 6a, 6b) Gene expression of (FIG. 6a) KRT73 and (FIG. 6b) NKG2E in U2OS-ERα cells treated with 10 nM estradiol, 5 μM 2′, 3′, 4′-THC, 1μM ICI alone or in combination for 24 hours. […] Error bars are ±SEM. […] After transfection, luciferase activities were measured as described in the Methods. RLU is relative light units and the data shown are mean ±SEM. (FIG. 6c). […] After transfection, luciferase activities were measured as described in the Methods. RLU is relative light units and the data shown are mean ±SEM (FIG. 6d).
# purified ERα = purified ERα (Homo sapiens, UniProt P03372); test: Fluorescent polarization with purified ERα; format: binding
# U2OS-ERα cells [4] = test: Microarray gene regulation in U2OS-ERα cells; format: cell-based, human
# Procedure: Total cellular RNA was isolated utilizing the Aurum™ RNA isolation kit (Bio-Rad, Hercules, Calif.) per the manufacturer's directions. RNA isolates were first quantified by nanodrop®, and then qualitatively evaluated by the Bio-Rad Experion™ system per the manufacturer's instructions. Biotin-labeled cRNA samples were prepared using 750 ng of total RNA. Biotin-labeled samples were evaluated by both 260/280 absorbance spectrophotometry and capillary electrophoresis. Labeled cRNA samples were hybridized overnight against Human genome HG U133A-2.0 GeneChip® arrays, (Affymetrix, Santa Clara, Calif.). All treatments were done in triplicate with the same batch of microarrays. The data was analyzed as previously described (Saunier, E. F., et al. Estrogenic plant extracts reverse weight gain and fat accumulation without causing mammary gland or uterine proliferation. PloS one 6, e28333 (2011)).
# FIGS. 2a-2f2′, 3′, 4′-THC behaves as a unique coagonist on gene expression in U2OS-ERα cells. […] Expression was assessed by up regulation or down regulation of 3-fold or more and a P-value≤0.05. […] Error bars are ±SEM.
# MCF-7 cells [5] = test: KRT19 mRNA RT-QPCR in MCF-7 cells; settings: 5 μM + 10 nM E2, 4 hours
# [6] = 10 nM E2, 5 μM 2′,3′,4′-THC, 1 μM tamoxifen or raloxifene, 24 hours
# [7] = in combination with 10 nM E2, 24 hours
# Chain of purified ERα (P03372 whole entry): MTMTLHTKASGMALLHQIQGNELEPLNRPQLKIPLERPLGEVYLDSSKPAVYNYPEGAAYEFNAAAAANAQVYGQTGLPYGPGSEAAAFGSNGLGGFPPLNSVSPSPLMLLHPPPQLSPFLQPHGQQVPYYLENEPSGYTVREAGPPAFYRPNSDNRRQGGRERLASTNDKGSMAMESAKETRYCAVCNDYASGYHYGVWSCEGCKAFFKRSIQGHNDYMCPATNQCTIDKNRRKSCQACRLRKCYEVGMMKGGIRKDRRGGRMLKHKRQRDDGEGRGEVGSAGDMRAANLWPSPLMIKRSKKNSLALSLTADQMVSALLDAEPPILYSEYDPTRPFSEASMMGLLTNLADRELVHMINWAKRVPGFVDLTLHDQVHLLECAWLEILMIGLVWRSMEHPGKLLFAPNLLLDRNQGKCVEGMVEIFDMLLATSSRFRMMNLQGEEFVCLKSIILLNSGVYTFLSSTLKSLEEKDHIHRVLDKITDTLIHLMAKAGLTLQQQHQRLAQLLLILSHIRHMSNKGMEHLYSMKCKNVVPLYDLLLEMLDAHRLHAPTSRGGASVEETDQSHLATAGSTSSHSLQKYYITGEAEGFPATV
smiles,measurement,setting,value
"O=C(/C=C/c1ccccc1)c1ccc(O)c(O)c1O [2′, 3′, 4′-THC, 2′, 3′, 4′-trihydroxychalcone]",E2 activation of ERE-TK-Luc,MCF-7 cells [1],dose-dependent synergistic increase
same,"KRT19 gene expression, compound alone",U2OS-ERα cells [2]; [6],no effect
same,activation of the KRT19 gene in the presence of E2,"U2OS-ERα cells [2]; 1 and 5 μM 2′,3′,4′-THC, 24 h",synergistic activation
same,effect on E2-induced KRT19 expression,U2OS-ERα cells [2]; [7],synergistic activation
same,synergy with receptor agonist,hPR-B,no synergy
same,"NKG2E gene expression, compound alone",U2OS-ERα cells [3]; [6],no effect
same,synergy in combination with tamoxifen or raloxifene,U2OS-ERα cells [3]; 5 μM + 1 μM tamoxifen or raloxifene,No synergy
same,effect on E2-induced NKG2E gene expression,U2OS-ERα cells [3]; [7],synergistic activation
same,IC50 relative to E2 (higher),purified ERα,"approximately 10,000 fold"
same,"number of genes regulated, compound alone","U2OS-ERα cells [4]; 10 nM E2 or 5 μM 2′,3′,4′-THC, 3-fold or more, P≤0.05",31 genes
same,genes regulated by the combination that were also regulated by E2,U2OS-ERα cells [4]; 5 μM + 10 nM E2,534 genes
same,"number of genes regulated by the 2′,3′,4′-THC/E2 combination",U2OS-ERα cells [4]; 5 μM + 10 nM E2,"1,358 genes"
same,"unique genes only regulated by the 2′,3′,4′-THC/E2 combination",U2OS-ERα cells [4]; 5 μM + 10 nM E2,824 genes
same,effect on E2 activation of the KRT19 gene,MCF-7 cells [5],did not have a significant effect

# Source: patent publication US20190008797A1, “ESTROGEN RECEPTOR ALPHA COLIGANDS, AND METHODS OF USE THEREOF” (priority 2016, published 2019)
